Source: patent US12421191B2, “3-hydroxyoxindole derivatives as CRHR2 antagonist” (RaQualia Pharma Inc., priority 2020, dated 2025)

The molecules below were run against T1, human CRHR2-alpha (Homo sapiens, UniProt Q13324) (assay: cAMP functional assay for human CRHR2 (LANCE Ultra TR-FRET)). Conditions: inhibition of cAMP production in CHO-K1 cells stably expressing human CRHR2-alpha, EC90 of human urocortin2 as agonist; read-out: IC50 against CRHR2.
T1 construct: host or cells: CHO-K1
T1 sequence (Q13324 1-411): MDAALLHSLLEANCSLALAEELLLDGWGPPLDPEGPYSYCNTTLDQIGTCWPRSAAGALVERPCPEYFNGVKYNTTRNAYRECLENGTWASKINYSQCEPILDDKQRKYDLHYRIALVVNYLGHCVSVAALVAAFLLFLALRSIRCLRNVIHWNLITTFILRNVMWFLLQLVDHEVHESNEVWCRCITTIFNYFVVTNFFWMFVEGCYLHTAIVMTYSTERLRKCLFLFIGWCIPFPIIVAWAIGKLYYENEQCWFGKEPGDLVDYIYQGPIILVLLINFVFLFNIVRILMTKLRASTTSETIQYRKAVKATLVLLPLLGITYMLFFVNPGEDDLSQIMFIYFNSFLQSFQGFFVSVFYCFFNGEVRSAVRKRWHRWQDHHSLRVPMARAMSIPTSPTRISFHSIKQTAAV
Format: cell-based
How it was run: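 CHO-K1 cells stably expressing CRHR2-alpha, serum-starved 7 h and cryopreserved, preincubated with compound 30 min at 25° C in HBSS with 0.1% BSA, 0.5 mM IBMX, 5 mM Hepes pH 7.4. EC90 human urocortin2 added for 30 min at 25° C; cAMP read by TR-FRET; IC50 from percent-inhibition curves.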

SMILES | IC50 [nM]
O=C(N[C@H]1CC[C@H](CN2C(=O)C(O)(c3ccncc3F)c3ccccc32)CC1)c1cc(Cl)cnc1C(F)F (stereo partly shown) [Example 10, 5-chloro-2-(difluoromethyl)-N-((1r,4r)-4-((3-(3-fluoropyridin-4-yl)-3-hydroxy-2-oxoindolin-1-yl)methyl)cyclohexyl) nicotinamide] | < 200
Cc1ncc(Cl)cc1C(=O)N[C@H]1CC[C@H](CN2C(=O)C(O)(c3cccc(F)c3F)c3ccc(F)cc32)CC1 (stereo partly shown) [Example 143, 5-chloro-N-((1r,4r)-4-((3-(2,3-difluorophenyl)-6-fluoro-3-hydroxy-2-oxoindolin-1-yl)methyl)cyclohexyl)-2-methylnicotinamide] | < 200
O=C(N[C@H]1CC[C@H](CN2C(=O)C(O)(c3cccc(F)c3F)c3ccc(F)cc32)CC1)c1cc(Cl)cnc1C(F)F (stereo partly shown) [Example 116, 5-chloro-2-(difluoromethyl)-N-((1r,4r)-4-((3-(2,3-difluorophenyl)-6-fluoro-3-hydroxy-2-oxoindolin-1-yl)methyl)cyclohexyl) nicotinamide] | < 200
Cc1cc(C2(O)C(=O)N(C[C@H]3CC[C@H](NC(=O)c4cc(Cl)cnc4C(F)F)CC3)c3ccccc32)cs1 (stereo partly shown) [Example 130, 5-chloro-2-(difluoromethyl)-N-((1r,4r)-4-((3-hydroxy-3-(5-methylthiophen-3-yl)-2-oxoindolin-1-yl)methyl)cyclohexyl) nicotinamide] | < 200
O=C(N[C@H]1CC[C@H](CN2C(=O)C(O)(c3ccccc3F)c3c(F)cccc32)CC1)c1cc(Cl)cnc1C(F)F (stereo partly shown) [Example 191, 5-chloro-2-(difluoromethyl)-N-((1r,4r)-4-((4-fluoro-3-(2-fluorophenyl)-3-hydroxy-2-oxoindolin-1-yl)methyl)cyclohexyl) nicotinamide] | < 200
COc1cccc(C2(O)C(=O)N(C[C@H]3CC[C@H](NC(=O)c4cc(Cl)cnc4C(F)F)CC3)c3ccccc32)c1 (stereo partly shown) [Example 47, 5-chloro-2-(difluoromethyl)-N-((1r,4r)-4-((3-hydroxy-3-(3-methoxyphenyl)-2-oxoindolin-1-yl)methyl)cyclohexyl) nicotinamide] | < 200
O=C(N[C@H]1CC[C@H](CN2C(=O)C(O)(c3ccccc3)c3ccc(Cl)cc32)CC1)c1cc(Cl)cnc1C(F)F (stereo partly shown) [Example 30, 5-chloro-N-((1r,4r)-4-((6-chloro-3-hydroxy-2-oxo-3-phenylindolin-1-yl)methyl)cyclohexyl)-2-(difluoromethyl)nicotinamide] | < 200
Cc1ccc2c(c1)N(C[C@H]1CC[C@H](NC(=O)c3cc(Cl)cnc3C(F)F)CC1)C(=O)C2(O)c1ccccc1F (stereo partly shown) [Example 148, 5-chloro-2-(difluoromethyl)-N-((1r,4r)-4-((3-(2-fluorophenyl)-3-hydroxy-6-methyl-2-oxoindolin-1-yl)methyl)cyclohexyl) nicotinamide] | < 200
COc1cc(C2(O)C(=O)N(C[C@H]3CC[C@H](NC(=O)c4cc(Cl)cnc4C(F)F)CC3)c3ccc(F)cc32)c(F)cn1 (stereo partly shown) [Example 124, 5-chloro-2-(difluoromethyl)-N-((1r,4r)-4-((5-fluoro-3-(5-fluoro-2-methoxypyridin-4-yl)-3-hydroxy-2-oxoindolin-1-yl)methyl)cyclohexyl) nicotinamide] | < 200
N#Cc1ccc(F)c(C2(O)C(=O)N(C[C@H]3CC[C@H](NC(=O)c4cc(Cl)cnc4C(F)F)CC3)c3ccccc32)c1 (stereo partly shown) [Example 59, 5-chloro-N-((1r,4r)-4-((3-(5-cyano-2-fluorophenyl)-3-hydroxy-2-oxoindolin-1-yl)methyl)cyclohexyl)-2-(difluoromethyl)nicotinamide] | < 200
